How the values were obtained:
[1] = biological target: T1, Mitogen-activated protein kinase kinase kinase 5 (Homo sapiens) (UniProt Q99683); experiment: Enzymatic radiometric [Km ATP] KinaseProfiler LeadHunter assay, kinase: ASK1, catalogue number: 14-606KP The assay has been performed by Eurofins Discovery.; conditions: ATP concentration 200.0 uM, Test compound concentration 10.0 uM
T1 sequence (whole entry): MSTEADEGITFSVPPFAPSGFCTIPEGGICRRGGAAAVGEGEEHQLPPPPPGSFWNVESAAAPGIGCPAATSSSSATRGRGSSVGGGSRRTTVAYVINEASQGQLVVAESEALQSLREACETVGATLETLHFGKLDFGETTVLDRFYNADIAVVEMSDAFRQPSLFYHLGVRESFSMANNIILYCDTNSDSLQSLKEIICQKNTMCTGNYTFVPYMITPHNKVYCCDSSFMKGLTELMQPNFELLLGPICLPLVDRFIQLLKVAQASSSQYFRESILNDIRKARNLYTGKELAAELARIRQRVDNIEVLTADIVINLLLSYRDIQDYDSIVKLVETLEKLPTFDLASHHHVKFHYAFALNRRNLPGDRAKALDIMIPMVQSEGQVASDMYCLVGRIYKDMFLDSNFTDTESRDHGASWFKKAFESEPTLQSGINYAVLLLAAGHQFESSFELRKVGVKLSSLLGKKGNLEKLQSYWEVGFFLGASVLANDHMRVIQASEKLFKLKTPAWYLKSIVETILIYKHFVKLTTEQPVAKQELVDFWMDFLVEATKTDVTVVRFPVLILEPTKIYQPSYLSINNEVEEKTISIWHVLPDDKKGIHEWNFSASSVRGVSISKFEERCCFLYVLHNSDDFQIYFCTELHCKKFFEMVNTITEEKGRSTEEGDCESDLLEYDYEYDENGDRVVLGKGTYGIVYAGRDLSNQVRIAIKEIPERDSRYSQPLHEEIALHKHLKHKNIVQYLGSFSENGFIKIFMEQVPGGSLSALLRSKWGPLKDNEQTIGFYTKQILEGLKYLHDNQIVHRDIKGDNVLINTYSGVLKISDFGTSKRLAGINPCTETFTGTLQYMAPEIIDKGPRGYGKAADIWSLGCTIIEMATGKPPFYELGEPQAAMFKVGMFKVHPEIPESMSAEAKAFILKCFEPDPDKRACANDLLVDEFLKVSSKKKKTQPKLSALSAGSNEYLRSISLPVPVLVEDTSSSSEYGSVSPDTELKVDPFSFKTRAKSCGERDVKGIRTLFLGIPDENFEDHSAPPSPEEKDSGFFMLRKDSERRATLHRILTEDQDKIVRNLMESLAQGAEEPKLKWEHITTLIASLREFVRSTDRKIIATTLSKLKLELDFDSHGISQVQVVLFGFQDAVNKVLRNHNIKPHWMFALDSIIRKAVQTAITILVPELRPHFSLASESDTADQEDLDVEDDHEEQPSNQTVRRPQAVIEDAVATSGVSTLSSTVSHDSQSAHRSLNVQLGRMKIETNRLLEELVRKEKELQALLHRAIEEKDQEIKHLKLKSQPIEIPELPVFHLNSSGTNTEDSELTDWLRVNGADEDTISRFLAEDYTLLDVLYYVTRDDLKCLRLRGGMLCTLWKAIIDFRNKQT

[2] = biological target: Serine/threonine-protein kinase 10 (Homo sapiens) (UniProt O94804); experiment: Enzymatic radiometric [Km ATP] KinaseProfiler LeadHunter assay, kinase: LOK, catalogue number: 14-686KP The assay has been performed by Eurofins Discovery.; conditions: ATP concentration 120.0 uM, Test compound concentration 10.0 uM
Sequence of Serine/threonine-protein kinase 10 (Homo sapiens) (O94804 whole entry, looked up): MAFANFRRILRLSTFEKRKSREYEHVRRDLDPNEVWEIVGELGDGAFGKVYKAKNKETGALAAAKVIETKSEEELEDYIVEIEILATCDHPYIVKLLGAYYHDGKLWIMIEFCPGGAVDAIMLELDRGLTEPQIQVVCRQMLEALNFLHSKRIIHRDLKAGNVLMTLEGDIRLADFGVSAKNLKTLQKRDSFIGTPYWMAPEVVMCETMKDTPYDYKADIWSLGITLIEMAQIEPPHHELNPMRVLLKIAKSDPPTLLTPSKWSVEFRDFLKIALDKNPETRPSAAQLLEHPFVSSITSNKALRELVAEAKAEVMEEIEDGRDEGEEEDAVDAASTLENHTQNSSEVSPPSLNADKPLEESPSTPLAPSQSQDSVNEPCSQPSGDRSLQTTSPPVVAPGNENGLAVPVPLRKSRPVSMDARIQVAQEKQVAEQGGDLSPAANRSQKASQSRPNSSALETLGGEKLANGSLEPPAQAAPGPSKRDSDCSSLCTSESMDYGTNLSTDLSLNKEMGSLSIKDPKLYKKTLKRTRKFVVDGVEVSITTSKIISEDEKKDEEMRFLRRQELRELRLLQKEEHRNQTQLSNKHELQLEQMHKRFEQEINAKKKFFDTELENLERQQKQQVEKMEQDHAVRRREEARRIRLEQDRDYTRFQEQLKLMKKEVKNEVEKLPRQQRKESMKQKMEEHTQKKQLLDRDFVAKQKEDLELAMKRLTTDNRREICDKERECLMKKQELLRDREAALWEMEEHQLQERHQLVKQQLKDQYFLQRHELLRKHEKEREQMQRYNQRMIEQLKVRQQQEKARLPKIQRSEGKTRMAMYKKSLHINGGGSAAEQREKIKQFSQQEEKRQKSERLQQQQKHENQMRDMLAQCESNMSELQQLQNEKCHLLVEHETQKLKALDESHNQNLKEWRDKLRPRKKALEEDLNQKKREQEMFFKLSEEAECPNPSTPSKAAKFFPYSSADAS

[3] = biological target: Tyrosine-protein kinase Lyn (Homo sapiens) (UniProt P07948); experiment: Enzymatic radiometric [Km ATP] KinaseProfiler LeadHunter assay, kinase: Lyn, catalogue number: 14-510KP The assay has been performed by Eurofins Discovery.; conditions: ATP concentration 70.0 uM, Test compound concentration 10.0 uM
Sequence of Tyrosine-protein kinase Lyn (Homo sapiens) (P07948 2-512 limits assumed): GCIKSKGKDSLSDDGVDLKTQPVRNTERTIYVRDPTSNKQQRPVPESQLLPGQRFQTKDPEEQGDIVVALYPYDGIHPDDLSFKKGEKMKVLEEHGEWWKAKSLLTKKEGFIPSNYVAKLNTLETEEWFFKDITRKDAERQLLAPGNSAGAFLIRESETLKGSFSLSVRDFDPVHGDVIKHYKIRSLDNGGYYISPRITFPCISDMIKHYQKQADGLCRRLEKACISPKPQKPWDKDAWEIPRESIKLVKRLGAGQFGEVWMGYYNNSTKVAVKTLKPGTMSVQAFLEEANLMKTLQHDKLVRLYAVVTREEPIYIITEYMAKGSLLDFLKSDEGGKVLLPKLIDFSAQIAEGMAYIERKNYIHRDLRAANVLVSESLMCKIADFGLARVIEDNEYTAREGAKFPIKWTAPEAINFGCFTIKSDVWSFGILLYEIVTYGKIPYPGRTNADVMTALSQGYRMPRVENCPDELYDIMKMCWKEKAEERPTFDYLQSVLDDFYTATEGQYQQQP

[4] = biological target: Ribosomal protein S6 kinase alpha-1 (Homo sapiens) (UniProt Q15418); experiment: Enzymatic radiometric [Km ATP] KinaseProfiler LeadHunter assay, kinase: Rsk1, catalogue number: 14-509KP The assay has been performed by Eurofins Discovery.; conditions: ATP concentration 45.0 uM, Test compound concentration 10.0 uM
Sequence of Ribosomal protein S6 kinase alpha-1 (Homo sapiens) (Q15418 whole entry): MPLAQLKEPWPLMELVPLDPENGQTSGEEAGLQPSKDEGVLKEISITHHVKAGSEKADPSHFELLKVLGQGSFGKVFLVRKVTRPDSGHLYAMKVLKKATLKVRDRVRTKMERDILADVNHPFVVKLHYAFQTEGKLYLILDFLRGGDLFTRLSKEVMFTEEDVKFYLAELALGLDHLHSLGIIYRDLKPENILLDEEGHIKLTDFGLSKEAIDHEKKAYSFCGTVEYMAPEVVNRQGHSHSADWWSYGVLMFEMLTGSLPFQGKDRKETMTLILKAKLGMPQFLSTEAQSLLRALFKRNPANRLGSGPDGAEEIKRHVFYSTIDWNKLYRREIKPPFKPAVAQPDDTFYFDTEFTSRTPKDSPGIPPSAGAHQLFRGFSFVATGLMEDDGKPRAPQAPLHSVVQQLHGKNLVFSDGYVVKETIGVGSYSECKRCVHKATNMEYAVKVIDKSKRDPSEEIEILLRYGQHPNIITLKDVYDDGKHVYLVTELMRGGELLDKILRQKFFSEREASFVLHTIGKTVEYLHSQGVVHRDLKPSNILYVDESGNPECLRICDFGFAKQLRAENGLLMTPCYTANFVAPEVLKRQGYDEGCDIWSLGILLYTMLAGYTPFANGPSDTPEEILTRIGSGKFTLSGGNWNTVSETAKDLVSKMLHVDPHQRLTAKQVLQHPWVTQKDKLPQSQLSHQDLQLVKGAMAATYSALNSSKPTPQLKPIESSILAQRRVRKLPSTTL

SMILES	Activity [1] [%]	Activity [2] [%]	Activity [3] [%]	Activity [4] [%]
CC(C)[C@@H](Nc1ncnc2[nH]ccc12)c1ccc2c(c1)S(=O)(=O)CCC2	108	104	112	92
C[C@H](C(=O)O)[C@@H](NC(=O)c1ncnc2[nH]ccc12)c1ccc(Br)cc1	102	97	94	88
CC(C)[C@H](Nc1ncnc2[nH]c(-c3cnn(C)c3C#N)cc12)c1ccc2c(n1)OCCO2	106	45	79	120
COc1ccc([C@H](Cc2nnn[nH]2)NC(=O)c2ncnc3[nH]ccc23)cc1	103	102	108	102
Cc1nn(C)cc1-c1cc2c(N[C@H](c3ccc4c(c3)S(=O)(=O)CCC4)C(C)C)ncnc2[nH]1	103	93	48	110
CNCc1cc(-c2cc3c(N[C@@H](c4ccc5c(c4)S(=O)(=O)CCC5)C(C)C)ncnc3[nH]2)co1	–	92	47	90
Cn1ncc(-c2cc3c(N[C@@H](c4ccc5c(n4)OCCO5)C(C)(C)C)ncnc3[nH]2)c1C#N	108	122	101	136
COc1ccc([C@@H](Cc2nnn[nH]2)NC(=O)c2ncnc3[nH]ccc23)cc1	101	96	111	98
CC(C)[C@@H](Nc1ncnc2[nH]c(C(=O)N[C@@H]3CCN(C)C3)cc12)c1ccc2c(c1)S(=O)(=O)CCC2	105	99	107	94
CC(C)[C@H](Nc1ncnc2[nH]ccc12)c1ccc2c(c1)S(=O)(=O)CCC2	105	102	104	102
CNC(=O)Cn1cc(-c2cc3c(N[C@@H](c4ccc5c(c4)S(=O)(=O)CCC5)C(C)C)ncnc3[nH]2)cn1	103	83	75	94

Reference: ChEMBL document CHEMBL5442741, “ASAP - In vitro kinase profile” (2024)
